Assay results taken from patent US12485080B2, “Cosmetic compositions” (Mary Kay Inc., priority 2011, dated 2025).

Experiments:
[1] = test system: hyaluronic acid; assay: Hyaluronic acid production/secretion in cultured human dermal fibroblasts; type: cell-based; conditions: compared to an untreated control
Description: In this study, tetradecyl aminobutyroylvalylamino butyric urea trifluoroacetate (SYN-HYCAN™ from Pentapharm/DSM) was replaced with Alpinia galanga leaf extract (HYALUFIX™ GL from BASF). Therefore, the combination of tripeptide-1 (KOLLAREN® from Unipex/Lucas Meyer), Centella asiatica stem cells (CENTELLA ASIATIC STEMS G™ from Ricerche Biotecnologiche), and Alpinia galanga leaf extract (HYALUFIX™ GL from BASF) was tested on skin at various levels in various dermatologically acceptable vehicles. The following includes data concerning these tests. Further, an in vitro assay was performed on Alpinia galanga leaf extract using cultured human dermal fibroblasts.

[2] = test system: fibronectin; assay: Secretion of fibronectin; type: cell-based; conditions: compared to untreated controls
[3] = test system: collagen III; assay: Immunofluorescent staining of cultured human fibroblasts for dermal matrix proteins: collagen III; type: cell-based; conditions: immunofluorescent antibodies, compared to untreated controls
[4] = test system: collagen I; assay: Immunofluorescent staining of cultured human fibroblasts for dermal matrix proteins: collagen I; type: cell-based; conditions: immunofluorescent antibodies, compared to untreated controls
[5] = test system: laminin; assay: Secretion of laminin; type: cell-based; conditions: compared to untreated controls
[6] = test system: elastin fibers; assay: Immunofluorescence study of elastin fibers; type: cell-based, human; conditions: immunofluorescence studies

Row | Substance | increase in production of hyaluronic acid secretion [1] [%] | increase in secretion of fibronectin [2] [%] | increase in collagen III [3] [%] | increase in collagen I [4] [%] | increase in secretion of laminin [5] [%] | increase in elastin fibers [6] [%]
1 | Tetradecyl aminobutyroylvalylamino butyric urea trifluoroacetate | 64.2 | – | – | – | – | –
2 | Tripeptide-1 | 118 | 105 | 105 | 305 | 85 | 15
